Data taken from ChEMBL document CHEMBL4024706 (Eur J Med Chem, 2017).

Columns and labels:
[1] = target: Serine/threonine-protein kinase 38-like (Homo sapiens) (UniProt Q9Y2H1); assay: Inhibition of wild-type human partial length NDR2 (N34 to E447 residues) expressed in bacterial expression system assessed as residual activity at 1 uM by Kinomescan method relative to control
[2] = target: Phosphatidylinositol 5-phosphate 4-kinase type-2 gamma (Homo sapiens) (UniProt Q8TBX8); assay: Inhibition of wild-type human partial length PIP5K2C (M1 to A421 residues) expressed in mammalian expression system assessed as residual activity at 1 uM by Kinomescan method relative to control
[3] = target: Ephrin type-B receptor 4 (Homo sapiens) (UniProt P54760); assay: Inhibition of wild-type human partial length EPHB4 (H585 to G892 residues) expressed in bacterial expression system assessed as residual activity at 1 uM by Kinomescan method relative to control
[4] = target: Dual specificity protein kinase CLK3 (Homo sapiens) (UniProt P49761); assay: Inhibition of wild-type human full length CLK3 (M1 to R490 residues) expressed in bacterial expression system assessed as residual activity at 1 uM by Kinomescan method relative to control
[5] = target: Phosphorylase b kinase gamma catalytic chain, liver/testis isoform (Homo sapiens) (UniProt P15735); assay: Inhibition of wild-type human partial length PHKG2 (M1 to W300 residues) expressed in bacterial expression system assessed as residual activity at 1 uM by Kinomescan method relative to control
Chain of Phosphorylase b kinase gamma catalytic chain, liver/testis isoform (Homo sapiens) (P15735 whole entry, the tested form may be a part, canonical isoform): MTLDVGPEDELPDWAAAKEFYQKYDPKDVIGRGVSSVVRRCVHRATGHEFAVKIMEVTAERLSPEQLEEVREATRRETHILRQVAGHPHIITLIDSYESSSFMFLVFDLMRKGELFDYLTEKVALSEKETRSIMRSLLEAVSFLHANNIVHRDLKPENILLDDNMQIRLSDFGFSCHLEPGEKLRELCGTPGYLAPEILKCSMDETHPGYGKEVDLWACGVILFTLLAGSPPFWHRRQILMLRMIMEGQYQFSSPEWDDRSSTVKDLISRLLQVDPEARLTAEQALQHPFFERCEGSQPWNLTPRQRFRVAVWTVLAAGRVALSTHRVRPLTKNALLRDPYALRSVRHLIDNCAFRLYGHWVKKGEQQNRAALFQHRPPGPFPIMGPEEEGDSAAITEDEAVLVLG

[6] = target: Membrane-associated tyrosine- and threonine-specific cdc2-inhibitory kinase (Homo sapiens) (UniProt Q99640); assay: Inhibition of wild-type human partial length PKMYT1 (A88 to G366 residues) expressed in bacterial expression system assessed as residual activity at 1 uM by Kinomescan method relative to control
[7] = target: Calcium/calmodulin-dependent protein kinase type II subunit gamma (Homo sapiens) (UniProt Q13555); assay: Inhibition of wild-type human partial length CAMK2G (R9 to A303 residues) expressed in bacterial expression system assessed as residual activity at 1 uM by Kinomescan method relative to control
Chain of Calcium/calmodulin-dependent protein kinase type II subunit gamma (Homo sapiens) (Q13555 whole entry, the tested form may be a part): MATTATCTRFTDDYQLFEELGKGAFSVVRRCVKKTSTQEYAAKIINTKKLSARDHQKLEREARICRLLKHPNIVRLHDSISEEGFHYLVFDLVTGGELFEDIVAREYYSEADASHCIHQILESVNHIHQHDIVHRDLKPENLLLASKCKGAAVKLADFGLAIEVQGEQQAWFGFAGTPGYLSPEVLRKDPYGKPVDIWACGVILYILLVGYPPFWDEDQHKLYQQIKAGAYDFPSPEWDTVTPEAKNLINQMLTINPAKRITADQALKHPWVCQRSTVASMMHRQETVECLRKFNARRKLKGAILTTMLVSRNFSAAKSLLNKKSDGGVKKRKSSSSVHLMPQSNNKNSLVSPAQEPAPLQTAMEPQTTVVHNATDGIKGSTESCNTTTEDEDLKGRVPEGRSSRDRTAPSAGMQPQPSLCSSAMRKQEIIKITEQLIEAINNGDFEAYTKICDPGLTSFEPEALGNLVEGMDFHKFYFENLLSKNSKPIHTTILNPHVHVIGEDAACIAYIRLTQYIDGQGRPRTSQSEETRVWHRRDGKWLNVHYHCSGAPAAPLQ

[8] = target: Mitotic checkpoint serine/threonine-protein kinase BUB1 (Homo sapiens) (UniProt O43683); assay: Inhibition of wild-type human partial length BUB1 (Q724 to K1085 residues) expressed in mammalian expression system assessed as residual activity at 1 uM by Kinomescan method relative to control
[9] = target: Dual specificity protein kinase CLK2 (Homo sapiens) (UniProt P49760); assay: Inhibition of wild-type human partial length CLK2 (D144 to R498 residues) expressed in bacterial expression system assessed as residual activity at 1 uM by Kinomescan method relative to control
[10] = target: Serine/threonine-protein kinase PAK 4 (Homo sapiens) (UniProt O96013); assay: Inhibition of wild-type human partial length PAK4 (Q144 to R438 residues) expressed in bacterial expression system assessed as residual activity at 1 uM by Kinomescan method relative to control
Chain of Serine/threonine-protein kinase PAK 4 (Homo sapiens) (O96013 whole entry, looked up, the tested form may be a part): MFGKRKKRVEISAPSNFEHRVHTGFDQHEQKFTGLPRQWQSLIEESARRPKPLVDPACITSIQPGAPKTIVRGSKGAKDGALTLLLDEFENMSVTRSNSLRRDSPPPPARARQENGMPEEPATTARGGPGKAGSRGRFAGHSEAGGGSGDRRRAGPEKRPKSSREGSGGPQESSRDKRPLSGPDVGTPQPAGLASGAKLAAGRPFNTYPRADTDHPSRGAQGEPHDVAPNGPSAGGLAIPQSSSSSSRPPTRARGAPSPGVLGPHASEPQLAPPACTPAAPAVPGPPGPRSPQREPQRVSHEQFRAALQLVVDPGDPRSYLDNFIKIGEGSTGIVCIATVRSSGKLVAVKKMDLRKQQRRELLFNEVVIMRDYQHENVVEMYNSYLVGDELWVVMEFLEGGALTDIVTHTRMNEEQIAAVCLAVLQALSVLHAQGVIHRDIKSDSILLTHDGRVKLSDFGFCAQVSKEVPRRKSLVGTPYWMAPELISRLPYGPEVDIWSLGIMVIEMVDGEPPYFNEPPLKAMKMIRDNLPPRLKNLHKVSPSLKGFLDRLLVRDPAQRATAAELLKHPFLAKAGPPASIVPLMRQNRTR

[11] = target: Maternal embryonic leucine zipper kinase (Homo sapiens) (UniProt Q14680); assay: Inhibition of wild-type human full length MELK (M1 to V651 residues) expressed in bacterial expression system assessed as residual activity at 1 uM by Kinomescan method relative to control
[12] = target: Serine/threonine-protein kinase 38 (Homo sapiens) (UniProt Q15208); assay: Inhibition of wild-type human partial length NDR1 (N33 to E449 residues) expressed in mammalian expression system assessed as residual activity at 1 uM by Kinomescan method relative to control
Chain of Serine/threonine-protein kinase 38 (Homo sapiens) (Q15208 2-465 limits assumed): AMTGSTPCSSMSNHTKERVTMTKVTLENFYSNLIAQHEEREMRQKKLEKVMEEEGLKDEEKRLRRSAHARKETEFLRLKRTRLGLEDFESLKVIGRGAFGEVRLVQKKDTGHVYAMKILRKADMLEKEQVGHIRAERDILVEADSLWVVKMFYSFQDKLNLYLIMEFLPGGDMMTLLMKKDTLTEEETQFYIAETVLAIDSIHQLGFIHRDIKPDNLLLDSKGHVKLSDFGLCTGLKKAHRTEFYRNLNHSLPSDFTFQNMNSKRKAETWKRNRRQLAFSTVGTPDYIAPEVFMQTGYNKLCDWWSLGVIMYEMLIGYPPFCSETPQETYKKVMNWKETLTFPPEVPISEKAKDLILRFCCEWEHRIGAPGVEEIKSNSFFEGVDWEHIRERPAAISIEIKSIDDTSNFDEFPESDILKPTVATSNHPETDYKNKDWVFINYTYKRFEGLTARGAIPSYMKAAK

[13] = target: Serine/threonine-protein kinase Chk1 (Homo sapiens) (UniProt O14757); assay: Inhibition of wild-type human partial length CHEK1 (M1 to G289 residues) expressed in bacterial expression system assessed as residual activity at 1 uM by Kinomescan method relative to control
Chain of Serine/threonine-protein kinase Chk1 (Homo sapiens) (O14757 whole entry, the tested form may be a part): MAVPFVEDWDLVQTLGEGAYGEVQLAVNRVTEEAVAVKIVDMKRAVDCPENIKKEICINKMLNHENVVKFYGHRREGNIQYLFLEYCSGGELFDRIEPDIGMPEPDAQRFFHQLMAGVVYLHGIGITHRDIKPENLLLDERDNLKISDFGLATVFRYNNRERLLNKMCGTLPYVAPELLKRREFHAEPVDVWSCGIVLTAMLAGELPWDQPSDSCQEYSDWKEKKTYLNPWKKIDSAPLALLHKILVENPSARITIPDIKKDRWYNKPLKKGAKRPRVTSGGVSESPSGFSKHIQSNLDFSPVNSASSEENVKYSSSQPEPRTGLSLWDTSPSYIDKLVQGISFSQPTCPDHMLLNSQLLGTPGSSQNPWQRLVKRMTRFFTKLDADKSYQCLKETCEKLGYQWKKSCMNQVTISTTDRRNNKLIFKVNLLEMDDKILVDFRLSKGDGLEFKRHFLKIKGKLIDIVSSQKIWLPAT

[14] = target: Calcium-dependent protein kinase 1 (Plasmodium falciparum) (UniProt P62344); assay: Inhibition of wild-type Plasmodium falciparum isolate 3D7 full length CDPK1 (M1 to S524 residues) expressed in mammalian expression system assessed as residual activity at 1 uM by Kinomescan method relative to control
[15] = target: Mitogen-activated protein kinase kinase kinase 14 (Homo sapiens) (UniProt Q99558); assay: Inhibition of wild-type human partial length NIK (L318 to P947 residues) expressed in mammalian expression system assessed as residual activity at 1 uM by Kinomescan method relative to control
[16] = target: NT-3 growth factor receptor (Homo sapiens) (UniProt Q16288); assay: Inhibition of wild-type human partial length TRKC (Q531 to G825 residues) expressed in mammalian expression system assessed as residual activity at 1 uM by Kinomescan method relative to control
[17] = target: Ephrin type-A receptor 3 (Homo sapiens) (UniProt P29320); assay: Inhibition of wild-type human partial length EPHA3 (D604 to K889 residues) expressed in bacterial expression system assessed as residual activity at 1 uM by Kinomescan method relative to control
[18] = target: Activin receptor type-2A (Homo sapiens) (UniProt P27037); assay: Inhibition of wild-type human ACVR2A (V171 to T499 residues) expressed in bacterial expression system assessed as residual activity at 1 uM by Kinomescan method relative to control
[19] = target: Mitogen-activated protein kinase kinase kinase 1 (Homo sapiens) (UniProt Q13233); assay: Inhibition of wild-type human partial length MAP3K1 (L1202 to W1512 residues) expressed in mammalian expression system assessed as residual activity at 1 uM by Kinomescan method relative to control
[20] = target: Serine/threonine-protein kinase BRSK1 (Homo sapiens) (UniProt Q8TDC3); assay: Inhibition of wild-type human partial length BRSK1 (M1 to E754 residues) expressed in bacterial expression system assessed as residual activity at 1 uM by Kinomescan method relative to control
[21] = test system: Phosphatidylinositol 4,5-bisphosphate 3-kinase catalytic subunit alpha isoform (Homo sapiens), P42336 [E542K]; assay: Inhibition of human partial length PIK3CA E542K mutant (R108 to N1068 residues) expressed in mammalian expression system assessed as residual activity at 1 uM by Kinomescan method relative to control
Chain of Phosphatidylinositol 4,5-bisphosphate 3-kinase catalytic subunit alpha isoform (Homo sapiens), P42336 [E542K] (P42336 whole entry E542K, the tested form may be a part, canonical isoform): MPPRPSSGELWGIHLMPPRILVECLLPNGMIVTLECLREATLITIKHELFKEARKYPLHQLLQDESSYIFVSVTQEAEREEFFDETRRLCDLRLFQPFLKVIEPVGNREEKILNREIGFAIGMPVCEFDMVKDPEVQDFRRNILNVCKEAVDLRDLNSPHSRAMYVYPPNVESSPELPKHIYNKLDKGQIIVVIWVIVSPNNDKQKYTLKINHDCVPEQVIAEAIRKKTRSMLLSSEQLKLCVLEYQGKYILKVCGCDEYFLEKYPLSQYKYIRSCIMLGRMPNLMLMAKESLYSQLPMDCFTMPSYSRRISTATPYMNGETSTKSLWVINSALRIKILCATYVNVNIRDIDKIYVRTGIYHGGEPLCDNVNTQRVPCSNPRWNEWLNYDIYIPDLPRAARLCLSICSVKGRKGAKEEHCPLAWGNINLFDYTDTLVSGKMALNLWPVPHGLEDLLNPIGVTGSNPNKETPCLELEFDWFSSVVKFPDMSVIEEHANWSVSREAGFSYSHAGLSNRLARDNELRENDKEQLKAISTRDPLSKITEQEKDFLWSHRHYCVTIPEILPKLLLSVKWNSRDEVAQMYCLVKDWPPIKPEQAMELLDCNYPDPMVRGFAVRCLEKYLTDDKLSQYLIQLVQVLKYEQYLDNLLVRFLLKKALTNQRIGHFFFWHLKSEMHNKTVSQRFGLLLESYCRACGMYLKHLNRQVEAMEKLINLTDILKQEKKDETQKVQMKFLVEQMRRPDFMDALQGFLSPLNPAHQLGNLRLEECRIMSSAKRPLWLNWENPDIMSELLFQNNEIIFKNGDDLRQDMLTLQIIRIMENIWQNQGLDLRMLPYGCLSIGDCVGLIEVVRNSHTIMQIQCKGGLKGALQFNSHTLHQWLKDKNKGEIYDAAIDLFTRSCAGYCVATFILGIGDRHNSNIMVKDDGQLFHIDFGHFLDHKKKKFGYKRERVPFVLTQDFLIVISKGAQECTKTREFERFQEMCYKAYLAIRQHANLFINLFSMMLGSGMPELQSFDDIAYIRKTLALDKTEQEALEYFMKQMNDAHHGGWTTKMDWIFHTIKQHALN

[22] = target: Eukaryotic translation initiation factor 2-alpha kinase 1 (Homo sapiens) (UniProt Q9BQI3); assay: Inhibition of wild-type human partial length EIF2AK1 (Q147 to E603 residues) expressed in mammalian expression system assessed as residual activity at 1 uM by Kinomescan method relative to control
[23] = target: Serine/threonine-protein kinase Nek9 (Homo sapiens) (UniProt Q8TD19); assay: Inhibition of wild-type human partial length NEK9 (P32 to R328 residues) expressed in bacterial expression system assessed as residual activity at 1 uM by Kinomescan method relative to control
Chain of Serine/threonine-protein kinase Nek9 (Homo sapiens) (Q8TD19 whole entry, the tested form may be a part): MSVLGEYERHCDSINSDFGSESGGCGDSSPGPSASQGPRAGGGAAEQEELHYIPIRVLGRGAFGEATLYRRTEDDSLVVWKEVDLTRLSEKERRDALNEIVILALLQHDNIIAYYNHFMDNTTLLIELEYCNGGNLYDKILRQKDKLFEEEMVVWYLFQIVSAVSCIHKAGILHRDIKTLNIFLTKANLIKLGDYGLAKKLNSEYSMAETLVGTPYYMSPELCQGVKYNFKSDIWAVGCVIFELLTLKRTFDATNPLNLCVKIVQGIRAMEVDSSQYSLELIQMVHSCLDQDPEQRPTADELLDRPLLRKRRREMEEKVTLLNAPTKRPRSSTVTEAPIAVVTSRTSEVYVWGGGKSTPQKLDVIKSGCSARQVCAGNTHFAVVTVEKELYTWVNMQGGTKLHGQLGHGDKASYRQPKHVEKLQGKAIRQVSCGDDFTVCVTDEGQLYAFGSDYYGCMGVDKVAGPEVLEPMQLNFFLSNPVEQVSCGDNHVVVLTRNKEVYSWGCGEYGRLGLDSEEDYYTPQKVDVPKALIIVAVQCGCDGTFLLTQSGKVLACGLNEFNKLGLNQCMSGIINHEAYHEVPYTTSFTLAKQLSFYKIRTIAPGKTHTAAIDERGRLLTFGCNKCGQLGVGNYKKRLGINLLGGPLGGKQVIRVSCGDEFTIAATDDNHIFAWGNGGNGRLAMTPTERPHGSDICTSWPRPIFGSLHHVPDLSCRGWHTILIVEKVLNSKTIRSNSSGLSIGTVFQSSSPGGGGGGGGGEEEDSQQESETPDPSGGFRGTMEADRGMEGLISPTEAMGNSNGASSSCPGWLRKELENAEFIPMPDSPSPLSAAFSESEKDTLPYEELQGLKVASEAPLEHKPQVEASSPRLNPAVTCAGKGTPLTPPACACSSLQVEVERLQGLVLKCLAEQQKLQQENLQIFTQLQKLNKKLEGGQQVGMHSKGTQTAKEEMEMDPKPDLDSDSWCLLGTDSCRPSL

[24] = target: Tyrosine-protein kinase JAK2 (Homo sapiens) (UniProt O60674); assay: Inhibition of wild-type human partial length JAK2 JH1 catalytic domain (A829 to G1132 residues) expressed in mammalian expression system assessed as residual activity at 1 uM by Kinomescan method relative to control
[25] = target: Proto-oncogene tyrosine-protein kinase Src (Homo sapiens) (UniProt P12931); assay: Inhibition of wild-type human partial length SRC (L240 to L536 residues) expressed in bacterial expression system assessed as residual activity at 1 uM by Kinomescan method relative to control

Chain of Serine/threonine-protein kinase 38-like (Homo sapiens) (Q9Y2H1 2-464 limits assumed): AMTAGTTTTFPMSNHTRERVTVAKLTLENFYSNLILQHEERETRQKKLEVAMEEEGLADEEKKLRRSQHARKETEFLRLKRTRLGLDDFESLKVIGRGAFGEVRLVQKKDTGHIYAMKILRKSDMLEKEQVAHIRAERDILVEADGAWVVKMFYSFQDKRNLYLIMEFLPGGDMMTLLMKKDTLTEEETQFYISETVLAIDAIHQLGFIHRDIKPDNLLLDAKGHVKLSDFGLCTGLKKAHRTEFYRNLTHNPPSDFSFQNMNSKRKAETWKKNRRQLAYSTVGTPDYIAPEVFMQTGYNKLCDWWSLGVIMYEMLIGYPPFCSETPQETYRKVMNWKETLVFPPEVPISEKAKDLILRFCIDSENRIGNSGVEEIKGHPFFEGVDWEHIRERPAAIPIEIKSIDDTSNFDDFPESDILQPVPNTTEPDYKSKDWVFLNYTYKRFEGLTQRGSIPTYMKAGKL

`C=CC(=O)Nc1cc(Nc2cc(-c3cccc(NC(=O)c4ccc(C(C)(C)C)cc4)c3C)cn(C)c2=O)ccc1C(=O)N1CCOCC1` was tested. Which Activity [1] did it give?
Its Activity is 100%.

What about the Activity [2] of the same molecule?
Its Activity is 97%.

What about the Activity [3] of the same molecule?
The Activity was 88%.

And the Activity [4]?
The Activity was 98%.

What about the Activity [5] of the same molecule?
The Activity was 100%.

And the Activity [6]?
Its Activity is 91%.

And the Activity [7]?
The Activity was 100%.

And the Activity [8]?
Its Activity is 100%.

What about the Activity [9] of the same molecule?
The Activity was 100%.

And the Activity [10]?
Its Activity is 94%.

What about the Activity [11] of the same molecule?
The Activity was 98%.

And the Activity [12]?
Its Activity is 93%.

What about the Activity [13] of the same molecule?
The Activity was 100%.

And the Activity [14]?
The Activity was 85%.

And the Activity [15]?
The Activity was 86%.

What about the Activity [16] of the same molecule?
Its Activity is 76%.

What about the Activity [17] of the same molecule?
The Activity was 95%.

What about the Activity [18] of the same molecule?
Its Activity is 90%.

What about the Activity [19] of the same molecule?
The Activity was 91%.

And the Activity [20]?
Its Activity is 100%.

And the Activity [21]?
Its Activity is 94%.

What about the Activity [22] of the same molecule?
Its Activity is 84%.

And the Activity [23]?
The Activity was 98%.

And the Activity [24]?
Its Activity is 73%.

What about the Activity [25] of the same molecule?
The Activity was 99%.
